Laboratory results: patent US20250388565A1, “ESTROGEN RECEPTOR ALPHA DEGRADERS AND METHODS OF USE THEREOF” (Relay Therapeutics, Inc., priority 2022, published 2025)

What follows are molecules tested against T1, ERα protein (HiBiT-tagged) in ESR1_HiBiT KI MCF7 cells (Homo sapiens, UniProt P03372) (assay: Nano Glo HiBiT Lytic Degradation Assay). Details: 6 hours with compound, 14-point dose response 1:3, bell-shape curve fit, half-maximal effect of first Hill model, read-out: MCF7 ESR1 HiBiT - (DC50).
T1 sequence (P03372 1-595): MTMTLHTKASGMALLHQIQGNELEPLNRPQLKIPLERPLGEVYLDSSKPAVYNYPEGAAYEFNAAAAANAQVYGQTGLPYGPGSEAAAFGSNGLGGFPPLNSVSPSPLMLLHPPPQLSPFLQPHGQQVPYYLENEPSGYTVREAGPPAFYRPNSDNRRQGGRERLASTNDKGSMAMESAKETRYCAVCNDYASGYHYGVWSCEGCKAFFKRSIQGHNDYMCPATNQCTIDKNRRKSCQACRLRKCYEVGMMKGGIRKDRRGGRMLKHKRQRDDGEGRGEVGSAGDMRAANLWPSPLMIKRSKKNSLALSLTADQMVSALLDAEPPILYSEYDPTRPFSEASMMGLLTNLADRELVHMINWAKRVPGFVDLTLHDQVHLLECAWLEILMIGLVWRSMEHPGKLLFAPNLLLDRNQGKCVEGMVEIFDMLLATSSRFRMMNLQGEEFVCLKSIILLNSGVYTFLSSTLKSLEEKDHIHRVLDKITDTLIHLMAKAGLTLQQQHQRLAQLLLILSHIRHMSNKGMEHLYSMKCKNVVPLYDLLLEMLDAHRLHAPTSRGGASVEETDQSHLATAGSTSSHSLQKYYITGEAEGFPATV
Format: cell-based
Summary of the method: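 Lytic Nano-Glo HiBiT luminescence quantified ERα remaining after a 6 h, 37° C compound exposure of MCF7 cells carrying endogenous HiBiT-tagged ESR1. Dosing used 14 threefold dilutions from a 10 mM DMSO stock (0.1% DMSO final), run in duplicate. Signals were corrected for cell-free background and expressed relative to DMSO, and DC50 came from a bell-shaped curve fit (first Hill model half-maximum).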

DC50 | Compound
2 nM | O=C1CC[C@H](N2Cc3cc(N4CCN(CC5CCN(c6ccc([C@H]7c8ccc(O)cc8CC[C@H]7c7ccc(C(F)(F)F)cc7)cc6)CC5)CC4)ccc3C2=O)C(=O)N1 (single isomer, unassigned) [II-41]
≥ 10000 nM | Cc1cc([C@@H]2c3ccc(O)cc3CC[C@@H]2c2ccccc2)ccc1N1CCC(CN2CCN(c3ccc4c(c3)CN([C@H]3CCC(=O)NC3=O)C4=O)CC2)CC1 (single isomer, unassigned) [II-42]
2 nM | Cc1cc([C@H]2c3ccc(O)cc3CC[C@H]2c2ccccc2)ccc1N1CCC(CN2CCN(c3ccc4c(c3)CN([C@H]3CCC(=O)NC3=O)C4=O)CC2)CC1 (single isomer, unassigned) [II-43]
2 nM | CC(C1CCN(c2ccc([C@@H]3c4ccc(O)cc4CC[C@@H]3c3ccccc3)cc2)CC1)N1CCN(c2ccc3c(c2)CN([C@H]2CCC(=O)NC2=O)C3=O)CC1 (single isomer, unassigned) [II-44]
2 nM | O=C1CC[C@H](N2Cc3cc(N4CCN(CC5CC6CCC(C5)N6c5ccc([C@@H]6c7ccc(O)cc7CC[C@@H]6c6ccccc6)cc5)CC4)ccc3C2=O)C(=O)N1 (single isomer, unassigned) [II-47]
1 nM | C[C@@H]1C[C@H](CN2CCN(c3ccc4c(c3)CN(C3CCC(=O)NC3=O)C4=O)CC2)CCN1c1ccc([C@@H]2c3ccc(O)cc3CC[C@@H]2c2ccccc2)cc1 (single isomer, unassigned) [II-48]
6 nM | C[C@H]1C[C@@H](CN2CCN(c3ccc4c(c3)CN(C3CCC(=O)NC3=O)C4=O)CC2)CCN1c1ccc([C@@H]2c3ccc(O)cc3CC[C@@H]2c2ccccc2)cc1 (single isomer, unassigned) [II-49]
0.006 nM | O=C1CC[C@H](N2Cc3cc(N4CCN(CC5CC6CCC(C5)N6c5ccc([C@H]6c7ccc(O)cc7CC[C@H]6c6ccccc6)cc5)CC4)ccc3C2=O)C(=O)N1 (single isomer, unassigned) [II-56]
≥ 10000 nM | C[C@]1(N2Cc3cc(N4CCN(CC5CCN(c6ccc([C@@H]7c8ccc(O)cc8CC[C@@H]7c7ccccc7)cc6)CC5)CC4)ccc3C2=O)CCC(=O)NC1=O (single isomer, unassigned) [II-57]
≥ 10000 nM | C[C@@]1(N2Cc3cc(N4CCN(CC5CCN(c6ccc([C@@H]7c8ccc(O)cc8CC[C@@H]7c7ccccc7)cc6)CC5)CC4)ccc3C2=O)CCC(=O)NC1=O (single isomer, unassigned) [II-58]
0.08 nM | O=C1CCC(N2Cc3cc(N4CCC(CN5CCC(c6ccc([C@H]7c8ccc(O)cc8CC[C@H]7c7ccccc7)cc6)CC5)CC4)ccc3C2=O)C(=O)N1 (single isomer, unassigned) [II-61]
47 nM | CC(C1CCN(c2ccc([C@@H]3c4ccc(O)cc4CC[C@@H]3c3ccccc3)cc2)CC1)N1CCN(c2ccc3c(c2)CN([C@@H]2CCC(=O)NC2=O)C3=O)CC1 (single isomer, unassigned) [II-67]
0.51 nM | C[C@H](C1CCN(c2ccc([C@@H]3c4ccc(O)cc4CC[C@@H]3c3ccccc3)cc2)CC1)N1CCN(c2ccc3c(c2)CN(C2CCC(=O)NC2=O)C3=O)CC1 (single isomer, unassigned) [II-69]
5 nM | C[C@@H](C1CCN(c2ccc([C@@H]3c4ccc(O)cc4CC[C@@H]3c3ccccc3)cc2)CC1)N1CCN(c2ccc3c(c2)CN(C2CCC(=O)NC2=O)C3=O)CC1 (single isomer, unassigned) [II-70]
2 nM | O=C1CCC(N2Cc3cc([C@@H]4CCN(CC5CCN(c6ccc([C@@H]7c8ccc(O)cc8CC[C@@H]7c7ccccc7)cc6)CC5)C[C@H]4F)ccc3C2=O)C(=O)N1 (single isomer, unassigned) [II-88]
1100 nM | O=C1CCC(N2Cc3cc([C@H]4CCN(CC5CCN(c6ccc([C@@H]7c8ccc(O)cc8CC[C@@H]7c7ccccc7)cc6)CC5)C[C@@H]4F)ccc3C2=O)C(=O)N1 (single isomer, unassigned) [II-89]
20 nM | O=C1CCC(N2Cc3cc([C@@H]4CCN(CC5CCN(c6ccc([C@@H]7c8ccc(O)cc8CC[C@@H]7c7ccccc7)cc6)CC5)CC4(F)F)ccc3C2=O)C(=O)N1 (single isomer, unassigned) [II-91]
